Measured values reported in patent publication US6030960A, “Method of treating hepatitis virus infections” (priority 1998, dated 2000).
“And” between values parts separate entries of the source, which are not always exact repeats. Equal values may be shown once.

Tests used:
Type in all cases: cell-based
Hepatitis B virus [1] = experiment: Effect on synthesis of antigen markers in persistently infected human HEP G2 cell cultures (Table 7); settings: for Relative Level of HBeAg / Relative Level of HBsAg / Relative Level of Virion DNA / activity at 10 µM: 10 μM, nine days; for Relative Level of HBeAg / Relative Level of HBsAg / Relative Level of Virion DNA: 12960 min; for activity at 10 µM: Hepatitis B virus, HepG2, 216 h
Method: Cells were treated with compound for nine days at 37° C. The overlay medium was harvested to measure levels of HBsAg, HBeAg and virion DNA. HBsAg and HBeAg were assayed by EIA (Abbott Laboratories). Virion DNA levels were measured as described in section B above.

Hepatitis B virus [2] = experiment: Effect of alkyl lipids on HBV replication in HBV persistently infected human HEP G2 cells (Table 6); settings: for Intracellular HBV DNA, Mono (episomal 3.2-3.8 Kb HBV genomes) / Intracellular HBV DNA, RI (replication intermediates): nine days
Method: Cells were treated with a particular compound for nine days at 37° C. Analysis of intracellular HEIV DNA was done 24 hours following the ninth day of treatment. […] The levels of integrated HBV DNA in each cellular DNA preparation were used to calculate the levels of episomal 3.2-3.8 Kb HBV genomes (Mono) and HBV DNA replication intermediates (RI). A zero value indicates an undetectable level of HBV virion DNA. The sensitivity cut-off was 0.1 pg DNA/ml of culture medium.

[3] = Cytotoxicity in HBV persistently infected human HEP G2 cells, neutral red dye uptake (Table 5); settings: human, hep-g2 cells, % of Control Neutral Red Dye Uptake
Description: (§1) Initially, evaluations of the alkyl lipids were done to determine whether the compounds were cytotoxic to the cells at concentrations having anti-HBV activity. The assay methodology is szt forth in Korba and Germ, Antiviral Res., 19, 55-70 (1992), incorporated by reference herein. Briefly, these cell cytotoxicity evaluations were done in 96-well plates seeded with HEP-G2 cell monolayers. The hepatoblastoma cell line HEP-G2 transfected with a plasmid carrying the gene that confers resistance to […] and four 5'-3' tandem copies of the Hepatitis B virus genome was obtained from Dr. George Acs. Proc. Natl. Acad. Sci. USA, 84, 1005-1009 (1987). Serial concentrations of compound were added to the RPMI-1640 growth medium and the growth medium was added to the 96-well plates containing the cell monolayers. The cells were incubated for a total of nine days at 37° C. The compound-containing medium was periodically replaced. Each compound was tested at four serial concentrations in triplicate. After nine days of treatment and incubation, 0.01% neutral red dye (Sigma, Inc.) was added to the overlay medium. Cell cytotoxicity was quantitated by measuring the average A510. Values in Table 1 represent the percentage of average A510 values (±standard deviation) relative to nine non-treated control wells.
(§2) An analysis was periormed to determine the cytotoxicity of the following compounds in human HEP-G2 cells persistently infected with HBV: CP-51, CP-49, CP-9, CP-126, lyso PAF and CP-7. 2'-3'-Dideoxycytidine (ddC) was used as a control in this cytotoxicity analysis. The toxicity analyses were performed in 96-well flat bottomed tissue culture plates following the same procedure set forth in Example 6 above. Each compound was tested at four concentrations, each in triplicate cultures. Uptake of neutral red dye was used to determine the relative level of toxicity. The absorbance of internalized dye at […] (A510) was used for the quantitative analysis.
(§3) Values are presented as a percentage of the average A510 values (± standard deviations) in ninz separate cultures of untreated cells maintained on the same 96-well plate as the test compounds. The percentage of dye uptake in the nine control cultures was 100±1.

[4] = tested on: HEP G2 cells persistently infected with HBV; experiment: as above
Description: as §1, §2, §3

[5] = Cytotoxicity of alkyl lipids, neutral red dye uptake (Table 1); settings: human, hep-g2 cells
Description: as §1

Hepatitis B virus [6] = experiment: Anti-hepatitis B virus activity in HEP-G2 cells persistently infected with HBV (Table 2); settings: Hepatitis B virus, HepG2, 216 h, 10 μM, 9 days treatment
Method: HEP-G2 cells persistently infected with HBV were treated daily with fresh D-MEM containing 20% FBS and 10 μM compound. After 9 days incubation and treatment, the overlay medium was harvested to assay the quantity of Hepatitis B virus s antigen (HBsAg) and HBeAg by EIA (Abbott Laboratories). The overlay medium was diluted to levels of antigen in the linear range of the assay. Standard curves using dilutions of positive HBsAg and HBeAg controls were included in each assay. Virion DNA was assayed using the method set forth in Korba and Gerin, Antiviral Res., 19, 5,5-70 (1992), incorporated by reference herein. HBV DNA was extracted from the overlay medium containing virus particles and analyzed by a slot-blot hybridization technique using ^32 P-labelled 3.2 Kb Eco R1 HBV DNA fragment by comparisons to HBV standards present on nitrocellulose filters using an AMBIS beta scanner. EC90 values (90% effective concentration, i.e., drug concentration which induces a 90% decrease in the levels of HBV DNA replication intermediates in treated versus control cells) were calculated by linear regression analysis. The relative levels of HBsAg, HBeAg and virion DNA were calulated as a percentage of the average levels obtained from the untreated controls.

[7] = read-out: Relative Level of HBeAg
[8] = read-out: Relative Level of HBsAg
[9] = read-out: Relative Level of Virion DNA
[10] = 10 μM, Day 9, 0 = undetectable, cut-off 0.1 pg DNA/ml

Row | SMILES | Relative Level of HBeAg (Hepatitis B virus [1]) | Relative Level of HBsAg (Hepatitis B virus [1]) | Relative Level of Virion DNA (Hepatitis B virus [1]) | activity at 10 µM (Hepatitis B virus [1]; [7]) [%] | activity at 10 µM (Hepatitis B virus [1]; [8]) [%] | activity at 10 µM (Hepatitis B virus [1]; [9]) [%] | HBV Virion DNA (Hepatitis B virus [2]; 1 μM, Day 0) | HBV Virion DNA (Hepatitis B virus [2]; 1 μM, Day 3) | HBV Virion DNA (Hepatitis B virus [2]; 1 μM, Day 6) | HBV Virion DNA (Hepatitis B virus [2]; 1 μM, Day 9) | Intracellular HBV DNA, Mono (episomal 3.2-3.8 Kb HBV genomes) (Hepatitis B virus [2]; 1 μM) | Intracellular HBV DNA, RI (replication intermediates) (Hepatitis B virus [2]; 1 μM) | HBV Virion DNA (Hepatitis B virus [2]; 10 μM, Day 0) | HBV Virion DNA (Hepatitis B virus [2]; 10 μM, Day 3) | HBV Virion DNA (Hepatitis B virus [2]; 10 μM, Day 6) | HBV Virion DNA (Hepatitis B virus [2]; [10]) | Intracellular HBV DNA, Mono (episomal 3.2-3.8 Kb HBV genomes) (Hepatitis B virus [2]; 10 μM) | Intracellular HBV DNA, RI (replication intermediates) (Hepatitis B virus [2]; 10 μM) | viability at 216 h, 3 µM [3] [%] | viability at 216 h, 10 µM [3] [%] | also measured
1 | CCCCCCCCCCCCCCCCSCC(C[N+](C)(C)CCO)OC (racemic) [CP-7, N-[rac-3-(hexadecylthio)-2-methoxy-1-propyl]-N,N-dimethyl-N-(2-hydroxyethyl) ammonium bromide] | 40 % of Untreated Control | 69 % of Untreated Control | 10 % of Untreated Control | 46 | 79 | 9 | 53 pg/ml Culture Medium and 64 pg/ml Culture Medium and 54 pg/ml Culture Medium | 56 pg/ml Culture Medium and 51 pg/ml Culture Medium and 66 pg/ml Culture Medium and 58 pg/ml Culture Medium | 46 pg/ml Culture Medium and 52 pg/ml Culture Medium and 59 pg/ml Culture Medium | 48 pg/ml Culture Medium and 44 pg/ml Culture Medium and 49 pg/ml Culture Medium and 41 pg/ml Culture Medium | 2.7 pg/μg Cell DNA and 2.2 pg/μg Cell DNA and 2.3 pg/μg Cell DNA and 2.4 pg/μg Cell DNA | 70 pg/μg Cell DNA and 75 pg/μg Cell DNA and 63 pg/μg Cell DNA and 68 pg/μg Cell DNA | 49 pg/ml Culture Medium and 63 pg/ml Culture Medium and 70 pg/ml Culture Medium and 65 pg/ml Culture Medium | 70 pg/ml Culture Medium and 64 pg/ml Culture Medium and 67 pg/ml Culture Medium and 59 pg/ml Culture Medium | 35 pg/ml Culture Medium and 28 pg/ml Culture Medium and 33 pg/ml Culture Medium | 8 pg/ml Culture Medium and 9 pg/ml Culture Medium and 7 pg/ml Culture Medium | 2.3 pg/μg Cell DNA and 2.6 pg/μg Cell DNA and 2.5 pg/μg Cell DNA | 11 pg/μg Cell DNA and 13 pg/μg Cell DNA and 10 pg/μg Cell DNA and 14 pg/μg Cell DNA | 98 ± 2 | 102 ± 6 | HBV Virion DNA (Hepatitis B virus [2]; 0.1 μM, Day 0): 51 pg/ml Culture Medium and 77 pg/ml Culture Medium and 64 pg/ml Culture Medium; HBV Virion DNA (Hepatitis B virus [2]; 0.1 μM, Day 3): 72 pg/ml Culture Medium and 75 pg/ml Culture Medium and 66 pg/ml Culture Medium and 51 pg/ml Culture Medium; HBV Virion DNA (Hepatitis B virus [2]; 0.1 μM, Day 6): 58 pg/ml Culture Medium and 65 pg/ml Culture Medium and 98 pg/ml Culture Medium and 75 pg/ml Culture Medium; HBV Virion DNA (Hepatitis B virus [2]; 0.1 μM, Day 9): 57 pg/ml Culture Medium and 89 pg/ml Culture Medium and 84 pg/ml Culture Medium and 76 pg/ml Culture Medium; Intracellular HBV DNA, Mono (episomal 3.2-3.8 Kb HBV genomes) (Hepatitis B virus [2]; 0.1 μM): 2.5 pg/μg Cell DNA and 2.6 pg/μg Cell DNA and 2.8 pg/μg Cell DNA and 2.3 pg/μg Cell DNA; Intracellular HBV DNA, RI (replication intermediates) (Hepatitis B virus [2]; 0.1 μM): 73 pg/μg Cell DNA and 62 pg/μg Cell DNA and 57 pg/μg Cell DNA and 76 pg/μg Cell DNA; viability at 216 h, 30 µM [3]: 67 ± 3%; viability at 216 h, 100 µM [3]: 24 ± 2%; Cell toxicity (greater than 50% depression of dye uptake) [4]: did not occur; cytotoxicity at 216 h, 30 µM [5]: 33%; viability at 216 h, 3 µM [5]: 98 ± 2%; viability at 216 h, 10 µM [5]: 102 ± 6%; viability at 216 h, 30 µM [5]: 67 ± 3%; viability at 216 h, 100 µM [5]: 24 ± 2%; activity at 10 µM (Hepatitis B virus [6]; [7]): 43%; activity at 10 µM (Hepatitis B virus [6]; [8]): 74%; activity at 10 µM (Hepatitis B virus [6]; [9]): 10%
2 | CCCCCCCCCCCCCCCCSCCOP(=O)([O-])OCC[N+](C)(C)C [CP-9, 2-hexadecylthio-1-ethylphosphocholine] | 57 % of Untreated Control | 64 % of Untreated Control | 16 % of Untreated Control | 53 | 68 | 13 | 59 pg/ml Culture Medium and 53 pg/ml Culture Medium and 60 pg/ml Culture Medium and 58 pg/ml Culture Medium and 50 pg/ml Culture Medium and 55 pg/ml Culture Medium and 65 pg/ml Culture Medium | 66 pg/ml Culture Medium and 60 pg/ml Culture Medium and 82 pg/ml Culture Medium and 55 pg/ml Culture Medium and 52 pg/ml Culture Medium and 64 pg/ml Culture Medium and 90 pg/ml Culture Medium and 63 pg/ml Culture Medium | 57 pg/ml Culture Medium and 52 pg/ml Culture Medium and 88 pg/ml Culture Medium and 78 pg/ml Culture Medium and 83 pg/ml Culture Medium and 91 pg/ml Culture Medium and 64 pg/ml Culture Medium | 69 pg/ml Culture Medium and 71 pg/ml Culture Medium and 94 pg/ml Culture Medium and 76 pg/ml Culture Medium and 80 pg/ml Culture Medium and 92 pg/ml Culture Medium | 2.1 pg/μg Cell DNA and 2.6 pg/μg Cell DNA and 2.3 pg/μg Cell DNA and 2.0 pg/μg Cell DNA and 2.2 pg/μg Cell DNA and 2.4 pg/μg Cell DNA | 53 pg/μg Cell DNA and 82 pg/μg Cell DNA and 67 pg/μg Cell DNA and 60 pg/μg Cell DNA and 54 pg/μg Cell DNA and 64 pg/μg Cell DNA and 66 pg/μg Cell DNA | 60 pg/ml Culture Medium and 66 pg/ml Culture Medium and 61 pg/ml Culture Medium and 52 pg/ml Culture Medium | 52 pg/ml Culture Medium and 68 pg/ml Culture Medium and 57 pg/ml Culture Medium and 60 pg/ml Culture Medium | 33 pg/ml Culture Medium and 40 pg/ml Culture Medium and 39 pg/ml Culture Medium and 41 pg/ml Culture Medium | 10 pg/ml Culture Medium and 14 pg/ml Culture Medium and 11 pg/ml Culture Medium | 2.3 pg/μg Cell DNA and 2.2 pg/μg Cell DNA | 13 pg/μg Cell DNA and 14 pg/μg Cell DNA and 17 pg/μg Cell DNA and 12 pg/μg Cell DNA | 100 ± 1 | 99 ± 2 | effect on HBsAg levels released into the culture medium (Hepatitis B virus [1]; in words): None of the compounds tested; reduction in HBeAg and virion DNA levels (Hepatitis B virus [1]; in words): caused a reduction; inhibition of HBV replication (Hepatitis B virus [2]; in words): moderately inhibitory of HBV replication; viability at 216 h, 30 µM [3]: 86 ± 2%; viability at 216 h, 100 µM [3]: 45 ± 2%; Cell toxicity (greater than 50% depression of dye uptake) [4]: did not occur
